Measured values taken from article PMC5531494, “Target specificity, in vivo pharmacokinetics, and efficacy of the putative STAT3 inhibitor LY5 in osteosarcoma, Ewing's sarcoma, and rhabdomyosarcoma” (PLoS ONE, 2017).

Assays:
ES and OS cells = assay: Alamar Blue cell viability assay, ES and OS panel; assay type: cell-based; details: Homo sapiens; range over ES and OS cells
Protocol: Sarcoma cell lines were seeded in 24-well plates in 1X RPMI medium containing 10% fetal bovine serum. Cells were then incubated with DMSO (control) or concentrations of LY5 ranging from 10 nM to 10 μM for 96 hrs. At the end of the incubation period, Alamar Blue (Invitrogen, Carlsbad, CA) was added to cells at one-tenth the volume of the cell culture medium and incubated for 3 hrs at 37° C in the dark. Fluorescence was then measured at an excitation/emissions wavelength of 570/590 nm and emission wavelength of 590 nm.
Fig 2 Biologic activity of LY5 in sarcoma cell lines. Dose response curves for LY5: RMS cell lines (RH30, RD, JR-1), ES cell lines (ES-3, ES-6, ES-7, ES-8), and an OS cell line (OS-17) were treated with LY5 (concentrations ranging from 10 nM to 10 μM) for 96 hours. Cell viability was determined using Alamar Blue staining. IC50 values are indicated for each cell line. Analyses were performed in triplicate and data are plotted as means ± standard deviation.

K7M2 cells = assay: Sulforhodamine B cytotoxicity / cell viability assay; assay type: cell-based, murine; details: Mus musculus
Protocol: Murine K7M2 and human MG63.3 OS cells were treated with increasing concentrations of LY5 for 2 hrs or 7 hrs. Western blotting was performed for pSTAT3 and STAT3 as indicated above to confirm inhibition of STAT3 phosphorylation in the cell lines prior to initiation of the PuMA assay. In addition, a sulforhodamine B colorimetric assay was performed to assess the cytotoxicity of LY5 in K7M2 and MG63.3 cells as previously described.
MG63.3 and K7M2 cell lines were exposed to increasing concentrations of LY5 to determine the IC50 (A). Western blot analysis was performed to determine the dose and duration of LY5 exposure required to inhibit STAT3 phosphorylation (B-C). Serial imaging of fluorescently labeled MG63.3 and K7M2 cells was performed in ex vivo LY5 treated lung sections (D). Metastatic burden was quantified by evaluation of the percent tumor burden (mean normalized fluorescent area). Data are reported as the mean ± standard deviation. In MG 63.3 experiment, p < 0.0001 Kruskal-Wallis test, p < 0.05 10 μM vs control at days 7, 14, and 21, 10 μM vs 1 μM at days 7, 14, and 21, 50 μM vs control at days 7, 14, and 21, and 50 μM vs 10 μM at days 7, 14, and 21 post-test Dunn. In K7M2 experiment, p < 0.0001 Kruskal-Wallis test, p < 0.05 10 μM vs control at days 14 and 21, 10 μM vs 0.1 μM at days 14 and 21, and 10 μM vs 1 μM at days 14 and 21, post-test Dunn.

[1] = Clinical toxicities in normal dogs; assay type: in vivo; details: 1 mg/kg, 24 hour PK collection timeframe
Protocol: LY5 was evaluated in two normal purpose-bred beagle dogs (female 8.8 kg; male 11.2 kg) receiving a single dose of 1mg/kg LY5 IV then orally by gavage 7 days later to establish the PK profile and assess the spectrum of clinical toxicities associated with LY5 administration. The oral dosing was repeated in the fed and fasted state. The starting dose was determined based on allometric scaling from the maximal tolerated dose studies performed in mice. Dogs were washed out for 30 days, and then given a dose of 25 mg in a capsule orally, followed by a 50 mg capsule dose 14 days later. Full PK sampling was performed over 24 hours following each dose of LY5. The dogs received LY5 and were used for the PK analysis but were not euthanized upon conclusion of the study.

OS-17-luc cells = assay: Murine model of OS pulmonary metastasis, bioluminescent imaging; assay type: in vivo, mice; details: 20 mg/kg LY5 daily oral gavage for 30 days, vs vehicle
Protocol: The ability of LY5 to inhibit pulmonary metastases was evaluated using a murine model of OS pulmonary metastasis. 8-week-old C.B-17 scid -/- female mice (Envigo, Madison, WI) received IV inoculation with 10^6 OS-17-luc cells expressing a luciferase reporter gene. OS-17-luc cells were generated by infecting OS-17 wild type cells with lentivirus containing the firefly luciferase under a CMV promoter (Cellomics Technology, Hallethorpe, MD) and selected with 0.5 ug/mL puromycin (Thermo Fisher Scientific, Waltham, MA). Beginning 24 hrs after inoculation, mice received vehicle (n = 10) or 20 mg/kg LY5 once daily via oral gavage (n = 9, one mouse died within 24 hrs after cell inoculation). LY5 was prepared by diluting a 40 mg/mL solution/slurry with a 50% propylene glycol/1% Tween 20 in water vehicle immediately before administration. Mice were treated with LY5 for 30 days, and bioluminescent imaging (after IP luciferin administration) was performed to determine pulmonary metastatic disease load. To investigate the pharmacodynamics (PD) effects of LY5, pSTAT3 (p-Tyr705, ab76315, Abcam) and total STAT3 (ab119352, Abcam) were evaluated in pulmonary metastatic lesions using IHC in lung samples from mice euthanized 24 hrs after their last dose.
(A-B) IHC staining of lung metastasis from mice treated with LY5. The metastatic tumor sections were stained with pSTAT3 or hematoxylin and eosin. […]

[2] = system: RH10, RH36, OS-17 and OS-1; assay: Subcutaneous PDX models of RMS and OS, overall; assay type: in vivo, mice; details: subcutaneous PDX models RH10, RH36, OS-17, OS-1
Protocol: C.B-17SC scid^-/- female mice (Taconic Farms, Germantown NY), were used to propagate subcutaneously implanted tumors. All mice were maintained under barrier conditions and experiments were conducted using protocols and conditions approved by the institutional animal care and use committee at University of Texas Health Science Center at San Antonio. Ten mice were used in each control or treatment group. Tumor volumes (cm^3) were determined and responses were determined using three activity measures as previously described.
To further examine the efficacy of LY5, we administered LY5 using subcutaneous PDX models of RMS (RH10 and RH36) and OS (OS-17 and OS-1). RH10, RH36 and OS-1 were derived from tissue explants, therefore no corresponding cell lines exist. Tumors were harvested 2 hrs after final drug administration. […] In addition, STAT3 phosphorylation was not observed in control or treated tumor derived from OS-17, and inhibition of STAT3 phosphorylation was not observed in OS-1 PDX models treated with 40 mg/kg twice daily.

NS(=O)(=O)c1cccc2c1C(=O)C=C(Nc1cccnc1)C2=O [LY5, 5,8-dioxo-6-(pyridin-3-ylamino)-5,8-dihydronaphthalene-1-sulfonamide]
IC50 (ES and OS cells): 1400 to 5100 nM | IC50 (K7M2 cells): 1500 nM | tolerability / acute clinical toxicities [1]: well tolerated without apparent acute clinical toxicities | development of pulmonary metastatic lesions (luciferase expression) (OS-17-luc cells): no difference | PDX growth compared to control [2]: did not decrease PDX growth
